Results as given in ChEMBL document CHEMBL1138958, “Opioid receptor binding and antinociceptive activity of the analogues of endomorphin-2 and morphiceptin with phenylalanine mimics in the position 3 or 4” (Bioorg Med Chem Lett, 2006).
pKi: −log10 of the molar value. Where a SMILES comes first, the peptide text is derived from it. [ ]: non-standard residue; d: D form. hPhe = N[C@@H](CCc1ccccc1)C(=O)O

Key:
[1] = target: Delta-type opioid receptor (Rattus norvegicus, UniProt P33533); assay: Displacement of [3H]DPDPE from delta opioid receptor in Wistar rat brain
[2] = target: Mu-type opioid receptor (Rattus norvegicus, UniProt P33535); assay: Displacement of [3H]DAMGO from mu opioid receptor in Wistar rat brain
[3] = target: Mu-type opioid receptor (Rattus norvegicus) (UniProt P33535); assay: Decrease of maximum binding of [3H]DAMGO to mu opioid receptor in Wistar rat brain at 10000 nm; parameters: scale not given: the % may be the effect or the level left
[4] = Half life in mouse brain at 10 ul; type: ADME, organism-based
[5] = system: Mus musculus; assay: Antinociceptive activity in mouse at 4ul, icv by hot plate test assessed as area under %MPE - time curve after 30 mins; type: functional
[6] = system: Mus musculus; assay: Antinociceptive activity in mouse at 4 ul, icv by hot plate test assessed as area under %MPE - time curve after 15 mins; type: functional
[7] = system: Mus musculus; assay: Antinociceptive activity in mouse at 4ul, icv by hot plate test assessed as area under %MPE - time curve after 45 mins; type: functional

Delta-type opioid receptor, sequence (P33533 whole entry): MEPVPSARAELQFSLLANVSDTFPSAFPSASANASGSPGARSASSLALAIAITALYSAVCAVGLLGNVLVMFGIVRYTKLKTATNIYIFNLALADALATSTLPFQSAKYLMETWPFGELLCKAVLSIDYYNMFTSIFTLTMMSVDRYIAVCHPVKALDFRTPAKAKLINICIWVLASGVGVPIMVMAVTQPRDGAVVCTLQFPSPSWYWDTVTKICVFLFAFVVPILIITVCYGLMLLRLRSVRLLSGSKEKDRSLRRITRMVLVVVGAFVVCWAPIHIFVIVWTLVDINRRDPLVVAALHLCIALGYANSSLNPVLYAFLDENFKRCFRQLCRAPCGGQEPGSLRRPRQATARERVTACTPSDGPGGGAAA
Mu-type opioid receptor, sequence (P33535 whole entry): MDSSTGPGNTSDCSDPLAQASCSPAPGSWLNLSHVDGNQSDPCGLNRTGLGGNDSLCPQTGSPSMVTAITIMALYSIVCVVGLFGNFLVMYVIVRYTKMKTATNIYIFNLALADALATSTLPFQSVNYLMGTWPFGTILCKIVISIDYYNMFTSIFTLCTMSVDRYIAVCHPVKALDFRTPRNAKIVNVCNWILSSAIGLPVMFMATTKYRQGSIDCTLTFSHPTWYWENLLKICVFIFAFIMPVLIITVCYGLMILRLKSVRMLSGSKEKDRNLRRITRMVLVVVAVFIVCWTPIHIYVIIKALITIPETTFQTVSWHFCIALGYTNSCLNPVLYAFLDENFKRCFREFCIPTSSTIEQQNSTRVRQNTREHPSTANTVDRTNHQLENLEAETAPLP
Mu-type opioid receptor (Rattus norvegicus), sequence (P33535 whole entry): as above

Row | SMILES | pKi [1] | pKi [2] | Activity [3] | half-life [4] | Activity [5] | Activity [6] | Activity [7]
1 | NC(=O)[C@H](CCc1ccccc1)NC(=O)[C@H](Cc1ccccc1)NC(=O)[C@@H]1CCCN1C(=O)[C@@H](N)Cc1ccc(O)cc1 | < 5.00 | 7.13 | – | – | – | – | –
2 | NC(=O)[C@@H]1CCCN1C(=O)[C@H](NC(=O)[C@@H]1CCCN1C(=O)[C@@H](N)Cc1ccc(O)cc1)c1ccccc1 | < 5.00 | – | 24.5% | – | – | – | –
3 | NC(=O)[C@H](Cc1ccccc1)NC(=O)[C@H](NC(=O)[C@@H]1CCCN1C(=O)[C@@H](N)Cc1ccc(O)cc1)c1ccccc1 | 5.68 | 5.87 | – | – | – | – | –
4 | NC(=O)[C@H](Cc1ccccc1)NC(=O)[C@H](CCc1ccccc1)NC(=O)[C@@H]1CCCN1C(=O)[C@@H](N)Cc1ccc(O)cc1 | < 5.00 | 7.55 | – | 32.5 min | 50% | 67.5% | 38.2%
5 | NC(=O)[C@@H](NC(=O)[C@H](Cc1ccccc1)NC(=O)[C@@H]1CCCN1C(=O)[C@@H](N)Cc1ccc(O)cc1)c1ccccc1 | < 5.00 | 7.57 | – | 24.1 min | 42.2% | 54.2% | 35.5%
6 | NC(=O)[C@@H]1CCCN1C(=O)[C@@H](NC(=O)[C@@H]1CCCN1C(=O)[C@@H](N)Cc1ccc(O)cc1)c1ccccc1 | < 5.00 | – | – | – | – | – | –
7 | NC(=O)[C@@H]1CCCN1C(=O)[C@H](Cc1ccccc1)NC(=O)[C@@H]1CCCN1C(=O)[C@@H](N)Cc1ccc(O)cc1 [MORPHICEPTIN] (H-YPFP-NH2) | < 5.00 | 6.87 | – | – | – | – | –
8 | NC(=O)[C@H](NC(=O)[C@H](Cc1ccccc1)NC(=O)[C@@H]1CCCN1C(=O)[C@@H](N)Cc1ccc(O)cc1)c1ccccc1 | < 5.00 | 6.67 | – | – | – | – | –
9 | NC(=O)[C@@H]1CCCN1C(=O)[C@H](CCc1ccccc1)NC(=O)[C@@H]1CCCN1C(=O)[C@@H](N)Cc1ccc(O)cc1 (H-YP[hPhe]P-NH2) | < 5.00 | 6.23 | – | – | – | – | –
10 | NC(=O)[C@H](Cc1ccccc1)NC(=O)[C@@H](NC(=O)[C@@H]1CCCN1C(=O)[C@@H](N)Cc1ccc(O)cc1)c1ccccc1 | < 5.00 | 6.57 | – | – | – | – | –
11 | NC(=O)[C@H](Cc1ccccc1)NC(=O)[C@H](Cc1ccccc1)NC(=O)[C@@H]1CCCN1C(=O)[C@@H](N)Cc1ccc(O)cc1 [ENDOMORPHIN 2] | – | – | – | 19.7 min | 34.8% | 40.1% | –
